For 14 compounds, IC50 results are on record in US11066396B2 (priority 2016, dated 2021).

Broadly, the IC50 is the concentration that inhibits the measured activity by half.

Structures are written as SMILES.

The target of the assay is HDAC1 (Homo sapiens (Human), UniProt Q13547). As to conditions: read-out: HDAC1 IC50.
Chain of HDAC1 (Q13547 whole entry): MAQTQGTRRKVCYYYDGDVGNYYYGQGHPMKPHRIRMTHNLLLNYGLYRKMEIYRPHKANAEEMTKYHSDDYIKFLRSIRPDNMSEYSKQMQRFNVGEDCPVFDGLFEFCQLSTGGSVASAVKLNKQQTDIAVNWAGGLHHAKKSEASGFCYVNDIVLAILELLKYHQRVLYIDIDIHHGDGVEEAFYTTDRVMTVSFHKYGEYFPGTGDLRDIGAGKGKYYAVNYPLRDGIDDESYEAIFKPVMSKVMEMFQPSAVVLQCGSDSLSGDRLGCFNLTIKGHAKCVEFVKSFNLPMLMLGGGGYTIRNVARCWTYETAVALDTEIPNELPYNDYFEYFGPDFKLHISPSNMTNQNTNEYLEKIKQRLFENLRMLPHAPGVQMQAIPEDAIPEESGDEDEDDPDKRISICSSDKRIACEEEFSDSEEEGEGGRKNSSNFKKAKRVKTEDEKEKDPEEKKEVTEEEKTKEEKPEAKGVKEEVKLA
Take `FC(F)(F)c1nc(-c2ccnc(OCc3cncc(Cl)n3)c2)no1` [Example 215, 2-chloro-6-[({4-[5-(trifluoromethyl)-1,2,4-oxadiazol-3-yl]pyridin-2-yl}oxy)methyl]pyrazine]: the IC50 came to 1200 nM. The same measure for `Cc1ccc2c3c(nn2c1)CCC(NCc1ccc(-c2noc(C(F)(F)F)n2)cc1)C3` (racemic) [Example 355, 8-methyl-N-({4-[5-(trifluoromethyl)-1,2,4-oxadiazol-3-yl]phenyl}methyl)-1,2,3,4-tetrahydropyrido[1,2-b]indazol-2-amine]: 48 nM. As for `FC(F)Cn1nc(COc2cc(-c3noc(C(F)(F)F)n3)ccn2)cc1C1CC1` [Example 218, 2-{[5-cyclopropyl-1-(2,2-difluoroethyl)-1H-pyrazol-3-yl]methoxy}-4-[5-(trifluoromethyl)-1,2,4-oxadiazol-3-yl]pyridine], the IC50 came to 870 nM. In the case of `O=C1CCc2ccc(Br)cc2N1Cc1ccc(-c2noc(C(F)(F)F)n2)cc1` [Example 319, 7-bromo-1-{4-[5-(trifluoromethyl)-1,2,4-oxadiazol-3-yl]benzyl}-3,4-dihydroquinolin-2(1H)-one] it was 180 nM; in that of `CC(C)n1ccc(COc2cc(-c3noc(C(F)(F)F)n3)ccn2)n1` [Example 223, 2-{[1-(1-methylethyl)-1H-pyrazol-3-yl]methoxy}-4-[5-(trifluoromethyl)-1,2,4-oxadiazol-3-yl]pyridine], 2400 nM. In the case of `FC(F)(F)c1nc(-c2ccnc(OCc3ccn(C4CC4)n3)c2)no1` [Example 222, 2-[(1-cyclopropyl-1H-pyrazol-3-yl)methoxy]-4-[5-(trifluoromethyl)-1,2,4-oxadiazol-3-yl]pyridine] it was 3500 nM; in that of `Cc1cnc(COc2cc(-c3noc(C(F)(F)F)n3)ccn2)cn1` [Example 213, 2-methyl-5-[({4-[5-(trifluoromethyl)-1,2,4-oxadiazol-3-yl]pyridin-2-yl}oxy)methyl]pyrazine], 1900 nM. The same measure for `FC(F)(F)c1nc(-c2ccnc(OCc3cc4n(n3)CCCO4)c2)no1` [Example 210, 2-[({4-[5-(trifluoromethyl)-1,2,4-oxadiazol-3-yl]pyridin-2-yl}oxy)methyl]-6,7-dihydro-5H-pyrazolo[5,1-b][1,3]oxazine]: 1200 nM; for `O=C1CCc2ccccc2N1Cc1ccc(-c2noc(C(F)(F)F)n2)cn1` [Example 324, 1-({5-[5-(trifluoromethyl)-1,2,4-oxadiazol-3-yl]pyridin-2-yl}methyl)-3,4-dihydroquinolin-2(1H)-one]: 150 nM; for `CCn1cc(COc2cc(-c3noc(C(F)(F)F)n3)ccn2)c(C)n1` [Example 206, 2-[(1-ethyl-3-methyl-1H-pyrazol-4-yl)methoxy]-4-[5-(trifluoromethyl)-1,2,4-oxadiazol-3-yl]pyridine]: 4200 nM. For `O=c1cnc2ccccc2n1Cc1ccc(-c2noc(C(F)(F)F)n2)cn1` [Example 467, 1-({5-[5-(trifluoromethyl)-1,2,4-oxadiazol-3-yl]pyridin-2-yl}methyl)quinoxalin-2(1H)-one], the IC50 stood at 170 nM. Consider `O=C(NCc1ccc(-c2noc(C(F)(F)F)n2)cc1)c1cc(N2CCOCC2)ccn1` [Example 204, 4-morpholin-4-yl-N-{4-[5-(trifluoromethyl)-1,2,4-oxadiazol-3-yl]benzyl}pyridine-2-carboxamide], for which the IC50 amounted to 1000 nM.

In the case of `Cc1cc(C)nc(COc2cc(-c3noc(C(F)(F)F)n3)ccn2)c1` [Example 211, 2,4-dimethyl-6-[({4-[5-(trifluoromethyl)-1,2,4-oxadiazol-3-yl]pyridin-2-yl}oxy)methyl]pyridine], the IC50 was 2500 nM. The same measure for `FC(F)(F)c1nc(-c2ccc(CNc3cccc(-n4cncn4)c3)nc2)no1` [Example 364, 3-(1H-1,2,4-triazol-1-yl)-N-({5-[5-(trifluoromethyl)-1,2,4-oxadiazol-3-yl]pyridin-2-yl}methyl)aniline]: 60 nM.
